Data set [1] deals with bulrush. Briefly: Test Example 2: herbicidal efficacy on rice paddy weeds post-emergence. Type of data set: in vivo, Scirpus juncoides. Particulars: post-emergence, one leaf stage, 21 days after treatment.
Data set [2] has as its system bulrush. The experiment in a line: Test Example 1: herbicidal efficacy on rice paddy weeds pre-emergence. Type of data set: in vivo, Scirpus juncoides. The note with it: 21 days.
Data set [3] has as its system paddy rice plant (cultivar: Nihonbare). The experiment in a line: Test Example 3: phytotoxicity test for transplanted paddy rice plant. Particulars: transplanted rice, 21 days after treatment. The data set is classed as in vivo. Summed up: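 Clay loam soil was placed in a 75 cm^2 plastic pot and flooded to a water depth of 5 cm. Two Nihonbare paddy rice plants at the two-leaf stage were transplanted 1 cm deep and grown in a hot house. After treatment, pots stayed in the hot house for 21 days, and phytotoxicity was then graded against an untreated control.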

Data set [4] deals with transplanted paddy rice plant and Bulrush. The experiment in a line: Test Example 5: selectivity between transplanted paddy rice plant and weeds. The data set is classed as in vivo. The note with it: (highest dosage with no phytotoxicity to paddy rice)/(lowest dosage with effective level 4 on Bulrush); rice 3000-100 g/ha, Bulrush 300-10 g/ha; 21 days. Put shortly: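 Scoring ran 21 days after treatment in a hothouse on a 0–4 scale (4 = 90–100%, 3 = 70–89%, 2 = 40–69%, 1 = 1–39%, 0 = none) relative to untreated plants. Post-emergence bulrush received 10, 30, 100 and 300 g/ha active ingredient. Transplanted rice received 100, 300, 1000 and 3000 g/ha to assess crop injury.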

In data set [5] the test system is bulrush. The experiment in a line: Test Example 4: low dosage test for rice paddy weeds. Type of data set: in vivo, Scirpus juncoides. Particulars: 300 g/ha as an active ingredient; plants treated at the one leaf stage; 21 days after treatment; vs untreated control. Summed up: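 Compound applied as a formulation at 300 g/ha to one-leaf bulrush grown in flooded clay loam (5 cm water) in a hot house. After 21 days, growth inhibition versus untreated plants rated on a 0–4 scale, with 4 meaning 90–100%.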

The subject of data set [6] is false pimpernel. The experiment in a line: Test Example 1: herbicidal efficacy on rice paddy weeds pre-emergence. The note with it: 21 days. The data set is classed as in vivo, Lindernia pyxidaria.
In the next data set the test system is barnyard glass. The experiment in a line: Test Example 2: herbicidal efficacy on rice paddy weeds post-emergence. Type of data set: in vivo, Echinochloa crus-galli. Particulars: post-emergence, one leaf stage, 21 days after treatment. Put shortly:
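Efficacy on paddy weeds was scored on a 0 to 4 growth-inhibition scale: 4 for 90%-100%, 3 for 70%-89%, 2 for 40%-69%, 1 for 1%-39% and 0 for 0%. Barnyard glass was grown in clay loam in 75 cm^2 pots under 5 cm of water in a hot house. It was compared with untreated pots 21 days after treatment.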

The subject of data set [7] is false pimpernel. Described as above. Particulars: post-emergence, one leaf stage, 21 days after treatment. Type of data set: in vivo, Lindernia pyxidaria.
Setting [8] is: dosage 1000 g/ha, treated 5 days after transplantation.

The text below walks through data of US20080274892A1, “Novel Haloalkylsulfonanilide Derivative, Herbicide, and Method of Use Thereof” (priority 2005, published 2008).

Turning to `CCC1COC(=O)N1Cc1ccccc1NS(=O)(=O)C(F)(F)F` (centres unmarked) [Compound No. 1-5, 4-ethyl-3-[2-(trifluoromethanesulfonylamino)benzyl]-2-oxazolidinone], the melting point – broadly, the temperature of the solid-liquid transition – is 81.4 to 83.6 °C. Besides, in the data set on bulrush [1] (dosage 1000 g/ha), the “Bulrush post (herbicidal efficacy grade)” value is recorded as 4 (90%-100% of herbicidal efficacy or phytotoxicity). Besides, in the data set with bulrush [2] (dosage 1000 g/ha), the “Bulrush pre (herbicidal efficacy grade)” value is given as 4 (90%-100% of herbicidal efficacy or phytotoxicity). Besides, the “Phytotoxicity to paddy rice” value in data set [3] (setting [8]) was 2 (40%-69% of herbicidal efficacy or phytotoxicity). The “Selective Index” value in [4] is on record as “≧10”. Besides, in the data set with bulrush [5], the “Herbicide effect to Bulrush” value was 4 (90%-100% of herbicidal efficacy or phytotoxicity). Moreover, in the data set with false pimpernel [6] (dosage 1000 g/ha), the “False pimpernel pre (herbicidal efficacy grade)” value (“False pimpernel pre” for short) is reported as 4 (90%-100% of herbicidal efficacy or phytotoxicity). Also, the “Burnyard grass post (herbicidal efficacy grade)” value (from here on “Burnyard grass post”) in the data set with barnyard glass (dosage 1000 g/ha) was 4 (90%-100% of herbicidal efficacy or phytotoxicity). In addition, in the data set with false pimpernel [7] (dosage 1000 g/ha), the “False pimpernel post (herbicidal efficacy grade)” value (shortened to “False pimpernel post”) is 4 (90%-100% of herbicidal efficacy or phytotoxicity).

The compound `CC1(C)OC(=O)N(Cc2ccccc2NS(=O)(=O)C(F)(F)F)C1O` (centres unmarked) [Compound No. 1-194, 4-hydroxy-5,5-dimethyl-3-[2-(trifluoromethanesulfonylamino)benzyl]oxazolidin-2-one] showed a melting point of 88 to 92 °C.

The compound `Cc1cn(Cc2ccccc2N(C(=O)OCC(C)C)S(=O)(=O)C(F)(F)F)c(=O)o1` [Compound No. 1-208, 3-{2-[N-(isobutoxycarbonyl)-N-(trifluoromethanesulfonyl)amino]benzyl}-5-methyl-4-oxazolin-2-one] yielded a melting point of 60.3 to 68.6 °C. In addition, in the data set on bulrush [1] (dosage 300 g/ha), the “Bulrush post (herbicidal efficacy grade)” value is listed as 4 (90%-100% of herbicidal efficacy or phytotoxicity). The “Bulrush pre (herbicidal efficacy grade)” value in the data set with bulrush [2] (dosage 300 g/ha) is 4 (90%-100% of herbicidal efficacy or phytotoxicity). Also, the “Phytotoxicity to paddy rice” value in data set [3] (dosage 300 g/ha) is listed as 0 (0% of herbicidal efficacy or phytotoxicity). Moreover, in the data set on false pimpernel [6] (dosage 300 g/ha), the “False pimpernel pre” value is given as 4 (90%-100% of herbicidal efficacy or phytotoxicity). The “False pimpernel post” value in the data set on false pimpernel [7] (dosage 300 g/ha) is on record as 1 (1%-39% of herbicidal efficacy or phytotoxicity).

`Cc1cn(Cc2ccccc2NS(=O)(=O)C(F)(F)F)c(=O)o1` [Compound No. 1-207, 5-methyl-3-[2-(trifluoromethanesulfonylamino)benzyl]-4-oxazolin-2-one] displayed a melting point of 120.2 to 121.2 °C. For the same compound, the “Bulrush post (herbicidal efficacy grade)” value with bulrush [1] (dosage 300 g/ha) is recorded as 4 (90%-100% of herbicidal efficacy or phytotoxicity). The “Bulrush pre (herbicidal efficacy grade)” value with bulrush [2] (dosage 300 g/ha) is recorded as 4 (90%-100% of herbicidal efficacy or phytotoxicity). In data set [3] (dosage 300 g/ha), the “Phytotoxicity to paddy rice” value is recorded as 1 (1%-39% of herbicidal efficacy or phytotoxicity). The “False pimpernel pre” value in the data set with false pimpernel [6] (dosage 300 g/ha) is given as 4 (90%-100% of herbicidal efficacy or phytotoxicity). Moreover, the “Burnyard grass post” value with barnyard glass (dosage 300 g/ha) was 0 (0% of herbicidal efficacy or phytotoxicity). In addition, the “False pimpernel post” value in the data set on false pimpernel [7] (dosage 300 g/ha) is recorded as 1 (1%-39% of herbicidal efficacy or phytotoxicity).

In the case of `CC(C)COC(=O)N(c1ccccc1CN1C(=O)OCC1C)S(=O)(=O)C(F)(F)F` (centres unmarked) [1-4], the “Bulrush post (herbicidal efficacy grade)” value in the data set on bulrush [1] (dosage 1000 g/ha) is reported as 4 (90%-100% of herbicidal efficacy or phytotoxicity). Also, the “Bulrush pre (herbicidal efficacy grade)” value in the data set on bulrush [2] (dosage 1000 g/ha) is on record as 4 (90%-100% of herbicidal efficacy or phytotoxicity). The “Phytotoxicity to paddy rice” value in data set [3] (setting [8]) is 2 (40%-69% of herbicidal efficacy or phytotoxicity). Besides, the “Selective Index” value in [4] was 10. For the same compound, the “Herbicide effect to Bulrush” value in the data set with bulrush [5] is on record as 4 (90%-100% of herbicidal efficacy or phytotoxicity). In addition, the “False pimpernel pre” value with false pimpernel [6] (dosage 1000 g/ha) is 4 (90%-100% of herbicidal efficacy or phytotoxicity). For the same compound, the “Burnyard grass post” value with barnyard glass (dosage 1000 g/ha) is recorded as 4 (90%-100% of herbicidal efficacy or phytotoxicity). Also, the “False pimpernel post” value with false pimpernel [7] (dosage 1000 g/ha) is 4 (90%-100% of herbicidal efficacy or phytotoxicity).

Consider `CCC1(C)CN(Cc2ccccc2N(C(=O)OCC(C)(C)C)S(=O)(=O)C(F)(F)F)C(=O)O1` (racemic) [1-105], for which, in the data set with bulrush [1] (dosage 1000 g/ha), the “Bulrush post (herbicidal efficacy grade)” value is given as 4 (90%-100% of herbicidal efficacy or phytotoxicity). In the data set on bulrush [2] (dosage 1000 g/ha), the “Bulrush pre (herbicidal efficacy grade)” value is given as 4 (90%-100% of herbicidal efficacy or phytotoxicity). Further, the “Phytotoxicity to paddy rice” value in data set [3] (setting [8]) was 1 (1%-39% of herbicidal efficacy or phytotoxicity). For the same compound, in data set [4], the “Selective Index” value is listed as 10. Moreover, the “Herbicide effect to Bulrush” value in the data set on bulrush [5] was 4 (90%-100% of herbicidal efficacy or phytotoxicity). The “False pimpernel pre” value in the data set on false pimpernel [6] (dosage 1000 g/ha) is 4 (90%-100% of herbicidal efficacy or phytotoxicity). Further, the “Burnyard grass post” value in the data set with barnyard glass (dosage 1000 g/ha) is given as 4 (90%-100% of herbicidal efficacy or phytotoxicity). In addition, the “False pimpernel post” value in the data set with false pimpernel [7] (dosage 1000 g/ha) is listed as 4 (90%-100% of herbicidal efficacy or phytotoxicity).

As to `CCCOC(=O)N(c1ccccc1CN1CC(C)(C(C)C)OC1=O)S(=O)(=O)C(F)(F)F` (racemic) [1-116], in the data set on bulrush [1] (dosage 1000 g/ha), the “Bulrush post (herbicidal efficacy grade)” value is reported as 4 (90%-100% of herbicidal efficacy or phytotoxicity). In addition, the “Bulrush pre (herbicidal efficacy grade)” value in the data set with bulrush [2] (dosage 1000 g/ha) was 4 (90%-100% of herbicidal efficacy or phytotoxicity). The “Phytotoxicity to paddy rice” value in data set [3] (setting [8]) is given as 1 (1%-39% of herbicidal efficacy or phytotoxicity). The “Selective Index” value in data set [4] was determined as 10. Further, the “Herbicide effect to Bulrush” value with bulrush [5] was 4 (90%-100% of herbicidal efficacy or phytotoxicity). The “False pimpernel pre” value with false pimpernel [6] (dosage 1000 g/ha) is 4 (90%-100% of herbicidal efficacy or phytotoxicity). For the same compound, the “Burnyard grass post” value in the data set with barnyard glass (dosage 1000 g/ha) is 4 (90%-100% of herbicidal efficacy or phytotoxicity). Moreover, the “False pimpernel post” value in the data set with false pimpernel [7] (dosage 1000 g/ha) is listed as 4 (90%-100% of herbicidal efficacy or phytotoxicity).

On to `COC(=O)N(c1ccccc1CN1C(=O)OC(C)(C)C1=O)S(=O)(=O)C(F)(F)F` [1-188], for which the “Bulrush post (herbicidal efficacy grade)” value in the data set on bulrush [1] (dosage 1000 g/ha) is on record as 4 (90%-100% of herbicidal efficacy or phytotoxicity). Moreover, the “Bulrush pre (herbicidal efficacy grade)” value in the data set with bulrush [2] (dosage 1000 g/ha) is on record as 4 (90%-100% of herbicidal efficacy or phytotoxicity). In addition, the “Phytotoxicity to paddy rice” value in data set [3] (setting [8]) was 1 (1%-39% of herbicidal efficacy or phytotoxicity). Also, the “Selective Index” value in [4] is listed as “≧10”. Further, the “Herbicide effect to Bulrush” value with bulrush [5] is recorded as 4 (90%-100% of herbicidal efficacy or phytotoxicity). Also, the “False pimpernel pre” value with false pimpernel [6] (dosage 1000 g/ha) is on record as 4 (90%-100% of herbicidal efficacy or phytotoxicity). Also, the “Burnyard grass post” value with barnyard glass (dosage 1000 g/ha) is 4 (90%-100% of herbicidal efficacy or phytotoxicity). Besides, in the data set with false pimpernel [7] (dosage 1000 g/ha), the “False pimpernel post” value is recorded as 4 (90%-100% of herbicidal efficacy or phytotoxicity).

Regarding `CC(C)COC(=O)N(c1ccccc1CN1CC(C)(C(F)(F)F)OC1=O)S(=O)(=O)C(F)(F)F` (centres unmarked) [1-136], in the data set with bulrush [1] (dosage 1000 g/ha), the “Bulrush post (herbicidal efficacy grade)” value is on record as 4 (90%-100% of herbicidal efficacy or phytotoxicity). Besides, the “Bulrush pre (herbicidal efficacy grade)” value in the data set with bulrush [2] (dosage 1000 g/ha) is given as 4 (90%-100% of herbicidal efficacy or phytotoxicity). Further, the “Phytotoxicity to paddy rice” value in data set [3] (setting [8]) was 1 (1%-39% of herbicidal efficacy or phytotoxicity). Besides, the “Selective Index” value in [4] is recorded as 10. In addition, the “Herbicide effect to Bulrush” value with bulrush [5] was 4 (90%-100% of herbicidal efficacy or phytotoxicity). Also, the “False pimpernel pre” value with false pimpernel [6] (dosage 1000 g/ha) is 4 (90%-100% of herbicidal efficacy or phytotoxicity). Besides, the “Burnyard grass post” value with barnyard glass (dosage 1000 g/ha) was 4 (90%-100% of herbicidal efficacy or phytotoxicity). Besides, in the data set with false pimpernel [7] (dosage 1000 g/ha), the “False pimpernel post” value is recorded as 4 (90%-100% of herbicidal efficacy or phytotoxicity).

For `COC(=O)N(c1ccccc1CN1CC(C)(C(C)C)OC1=O)S(=O)(=O)C(F)(F)F` (racemic) [1-114], in the data set on bulrush [1] (dosage 1000 g/ha), the “Bulrush post (herbicidal efficacy grade)” value is given as 4 (90%-100% of herbicidal efficacy or phytotoxicity). In addition, the “Bulrush pre (herbicidal efficacy grade)” value in the data set with bulrush [2] (dosage 1000 g/ha) is reported as 4 (90%-100% of herbicidal efficacy or phytotoxicity). Moreover, in data set [3] (setting [8]), the “Phytotoxicity to paddy rice” value is reported as 2 (40%-69% of herbicidal efficacy or phytotoxicity). In addition, the “Selective Index” value in data set [4] was found to be 30. Besides, the “Herbicide effect to Bulrush” value in the data set on bulrush [5] was 4 (90%-100% of herbicidal efficacy or phytotoxicity). Further, the “False pimpernel pre” value in the data set on false pimpernel [6] (dosage 1000 g/ha) is reported as 4 (90%-100% of herbicidal efficacy or phytotoxicity). The “Burnyard grass post” value in the data set on barnyard glass (dosage 1000 g/ha) is 4 (90%-100% of herbicidal efficacy or phytotoxicity). For the same compound, in the data set with false pimpernel [7] (dosage 1000 g/ha), the “False pimpernel post” value is 4 (90%-100% of herbicidal efficacy or phytotoxicity).
